Values joined by “and” are separate entries in the source; they are usually repeats but may differ in a detail not shown here. Equal values may be shown once.
System: WM3248 melanoma cells, 486 antibodies
Test: Reverse phase protein arrays (RPPA)
Format: cell-based, Human
Description: Pellets were snap frozen in liquid nitrogen and shipped to MD Anderson Cancer Center core RPPA facility for RPPA analysis (Table S5). Three biological replicates for each sample were generated.
Nomenclatures on the RPPA heatmaps: name_of_antibody.species_of_antibody.status_of_antibody. V - antibody validated; C - validation of antibody in progress; Q - antibody nonspecific; E – under evaluation; antibodies raised in M - mouse, G - goat, R - rabbit, or T - rat.

CN(C)c1cccc(Nc2cc(-c3ccccc3)nc(C3CCNCC3)n2)c1 [ARN22089, N1,N1-dimethyl-N3-(6-phenyl-2-(piperidin-4-yl)pyrimidin-4-yl)benzene-1,3-diamine]
c.Jun_pS73.R.V normalized signal (Norm_20 Average): 0.769 | c.Kit.R.V normalized signal (Norm_20 Average): 1.333 | c.Met_pY1234_Y1235.R.V normalized signal (Norm_20 Average): 1.008 | c.Myc.R.C normalized signal (Norm_20 Average): 0.930 | cGAS.R.V normalized signal (Norm_20 Average): 0.995 | cdc2_pY15.R.C normalized signal (Norm_20 Average): 0.940 | cdc25C.R.V normalized signal (Norm_20 Average): 0.832 | C.Raf.R.C normalized signal (Norm_20 replicates): 0.926 and 0.909 and 1.022 | C.Raf_pS338.R.V normalized signal (Norm_20 replicates): 1.047 and 0.977 and 1.202 | CA9.R.C normalized signal (Norm_20 replicates): 0.834 and 0.857 and 0.980 | CD2.M.C normalized signal (Norm_20 replicates): 0.856 and 0.882 and 0.876 | CD4.R.V normalized signal (Norm_20 replicates): 1.114 and 0.892 and 1.008 | CD5.M.C normalized signal (Norm_20 replicates): 0.915 and 0.968 and 0.950 | CD20.R.C normalized signal (Norm_20 replicates): 1.024 and 1.514 and 1.531 | CD26.R.V normalized signal (Norm_20 replicates): 1.033 and 0.940 and 1.351 | CD29.M.V normalized signal (Norm_20 replicates): 0.857 and 0.910 and 0.908 | CD31.M.V normalized signal (Norm_20 replicates): 0.884 and 0.896 | CD38.R.C normalized signal (Norm_20 replicates): 1.108 and 1.163 | CD44.R.C normalized signal (Norm_20 replicates): 0.959 and 1.005 | CD45.M.V normalized signal (Norm_20 replicates): 0.835 and 0.934 | CD49b.M.V normalized signal (Norm_20 replicates): 0.952 and 1.078 and 1.005 | CD68.M.C normalized signal (Norm_20 replicates): 0.919 and 0.910 | CD74.M.V normalized signal (Norm_20 replicates): 0.908 and 0.967 and 0.901 | CD134.R.V normalized signal (Norm_20 replicates): 0.960 and 0.966 | CD171.M.V normalized signal (Norm_20 replicates): 0.652 and 0.837 and 0.648 | CDK1_pT14.R.C normalized signal (Norm_20 replicates): 1.055 and 0.710 and 1.260 | CDK9.R.V normalized signal (Norm_20 replicates): 0.996 and 0.856 and 0.946 | CDKN2A.R.C normalized signal (Norm_20 replicates): 0.854 and 0.981 and 0.927 | CDT1.R.V normalized signal (Norm_20 replicates): 0.785 and 0.945 and 0.841 | CENP.A.R.V normalized signal (Norm_20 replicates): 0.821 and 2.735 and 1.018 | CHD1L.R.V normalized signal (Norm_20 replicates): 0.858 and 0.933 and 1.056 | CIITA.R.C normalized signal (Norm_20 replicates): 0.943 and 1.115 and 1.149 | COG3.R.V normalized signal (Norm_20 replicates): 0.982 and 0.987 and 1.164 | CRABP1.R.C normalized signal (Norm_20 replicates): 0.873 and 1.063 | CRABP2.R.V normalized signal (Norm_20 replicates): 0.668 and 1.048 and 0.808 | CREB_pS133.R.C normalized signal (Norm_20 replicates): 0.993 and 1.115 and 1.463 | CSK.R.C normalized signal (Norm_20 replicates): 0.890 and 0.821 and 1.057 | Calnexin.R.V normalized signal (Norm_20 replicates): 0.950 and 0.927 and 0.903 | Caspase.3.cleaved.R.C normalized signal (Norm_20 replicates): 1.050 and 1.052 and 0.937 | Caspase.7.cleaved..R.C normalized signal (Norm_20 replicates): 1.145 and 0.913 and 0.981 | Caspase.8.M.Q normalized signal (Norm_20 replicates): 0.921 and 1.010 and 0.953 | Caspase.8.cleaved.R.C normalized signal (Norm_20 replicates): 0.981 and 0.904 and 0.986 | Caveolin.1.R.V normalized signal (Norm_20 replicates): 0.827 and 0.896 and 0.874 | Cdc6.R.V normalized signal (Norm_20 replicates): 1.058 and 0.691 and 0.803 | Cdc42.R.C normalized signal (Norm_20 replicates): 0.945 and 1.025 and 1.019 | Chk1.M.C normalized signal (Norm_20 replicates): 0.656 and 0.821 and 0.882 | Chk1_pS296.R.V normalized signal (Norm_20 replicates): 0.970 and 0.828 and 1.051 | Chk1_pS345.R.C normalized signal (Norm_20 replicates): 1.119 and 1.167 and 1.225 | Chk2.M.V normalized signal (Norm_20 replicates): 0.658 and 0.864 and 1.104 | Chk2_pT68.R.C normalized signal (Norm_20 replicates): 0.997 and 1.290 and 1.096 | Claudin.7.R.V normalized signal (Norm_20 replicates): 0.881 and 1.747 and 1.050 | Collagen.VI.R.V normalized signal (Norm_20 replicates): 1.201 and 0.989 and 0.848 | Complex.II.Subunit.M.V normalized signal (Norm_20 replicates): 0.922 and 0.878 and 1.206 | Connexin.43.R.C normalized signal (Norm_20 replicates): 0.931 and 1.019 | Coup.TFII.R.C normalized signal (Norm_20 replicates): 1.109 and 0.920 and 0.985 | Cox2.R.C normalized signal (Norm_20 replicates): 1.356 and 1.253 and 1.438 | Cox.IV.R.V normalized signal (Norm_20 replicates): 1.130 and 0.864 and 0.981 | Creb.R.C normalized signal (Norm_20 replicates): 0.982 and 1.104 | CtIP.R.V normalized signal (Norm_20 replicates): 0.991 and 0.925 and 0.970 | Cyclin.B1.R.V normalized signal (Norm_20 replicates): 0.884 and 0.735 and 1.285 | Cyclin.D1.R.C normalized signal (Norm_20 replicates): 0.990 and 1.056 and 0.913 | Cyclin.D3.M.V normalized signal (Norm_20 replicates): 0.612 and 0.725 and 0.909 | Cyclin.E1.R.V normalized signal (Norm_20 replicates): 0.878 and 0.955 and 0.872 | Cyclophilin.F.M.V normalized signal (Norm_20 replicates): 0.906 and 0.884 and 1.010 | D.a.Tubulin.R.V normalized signal (Norm_20 replicates): 1.030 and 0.992 | DAPK1_pS308.M.C normalized signal (Norm_20 replicates): 1.481 and 2.154 and 2.593 | DAPK2.R.C normalized signal (Norm_20 replicates): 0.964 and 1.008 | DDB.1.R.V normalized signal (Norm_20 replicates): 1.193 and 0.735 and 0.837 | DDR1.R.V normalized signal (Norm_20 replicates): 0.952 and 1.004 and 1.031 | DDR1_pY513.R.C normalized signal (Norm_20 replicates): 1.061 and 1.271 and 0.913 | DJ1.R.V normalized signal (Norm_20 replicates): 1.006 and 0.828 and 0.954 | DM.Histone.H3.R.V normalized signal (Norm_20 replicates): 3.935 and 0.881 | DM.K9.Histone.H3.M.V normalized signal (Norm_20 replicates): 2.137 and 0.933 | DNA.Ligase.IV.R.C normalized signal (Norm_20 replicates): 0.747 and 1.076 | DNA_POLG.R.V normalized signal (Norm_20 replicates): 1.105 and 1.113 and 1.034 | c.Jun_pS73.R.V normalized signal (Norm_20 replicates): 0.847 and 0.671 and 0.789 | c.Kit.R.V normalized signal (Norm_20 replicates): 1.304 and 1.335 and 1.361 | c.Met_pY1234_Y1235.R.V normalized signal (Norm_20 replicates): 1.007 and 1.003 and 1.014 | c.Myc.R.C normalized signal (Norm_20 replicates): 0.879 and 0.953 and 0.957 | cGAS.R.V normalized signal (Norm_20 replicates): 0.887 and 1.171 and 0.926 | cdc2_pY15.R.C normalized signal (Norm_20 replicates): 0.878 and 0.795 and 1.146 | cdc25C.R.V normalized signal (Norm_20 replicates): 0.758 and 0.751 and 0.986

Reference: PMC9127750, “Structure-based design of CDC42 effector interaction inhibitors for the treatment of cancer” (Cell reports, 2022)
